Experimental data published in patent publication US7022719B2, “Preventing and reversing the formation of advance glycosylation endproducts” (Alteon, Inc., priority 1995, dated 2006).
Where “and” joins values, the source holds several entries; their conditions need not be identical. Equal values may be shown once. Where a name gives a salt, the structure may show the parent alone. Read-outs that look alike come from different tables or passages of the source. Blank lines part the entries; values can stand above or below the molecule they belong to.

Assays:
[1] = system: AGE-BSA crosslinked to collagen; assay: Cross-link Breaking Assay (sandwich enzyme immunoassay); type: biochemical; details: for Breaking Anti-AGE: anti-AGE antibody; for Breaking Anti-BSA: anti-BSA antibody
Procedure: The present invention also involves a novel sandwich enzyme immunoassay used to ascertain the ability of test compounds to “break” or reverse already formed advanced glycosylation endproducts by detecting the breaking of AGE (Advanced glycosylation endproduct) moieties from AGE-crosslinked protein. This assay comprises: • a) incubation of AGE-modified bovine serum albumin (AGE BSA) on collagen-coated wells of microtiter plates for a period of 2–6 hours' at a temperature of 37° C.; • b) washing of the wells with PBS-Tween; • c) application of the test compounds to the washed wells of step b; • d) incubation of the test compounds applied to the washed wells for an additional 12–24 hours at a temperature of about 37° C.; and • e) detection of the AGE-breaking using an antibody raised against AGE-ribonuclease or cross-link breaking with an antibody against BSA.
In order to ascertain the ability of the compounds of the instant invention to “break” or reverse already formed advanced glycosylation endproducts, a novel sandwich enzyme immunoassay was developed which detects breaking of AGE (Advanced glycosylation endproduct) moieties from AGE-crosslinked protein. The assay utilizes collagen-coated 96 well microtiter plates that are obtained commercially. […] Following an incubation period of 16 hours (37° C.) cross-link-breaking is detected using an antibody raised against AGE-ribonuclease or with an antibody against BSA. […] Details of the assay are as follows:
Methods Preparation of Solutions and Buffers • 1. AGE-BSA stock solutions were prepared as follows. Sodium phosphate buffer (0.4 M) was prepared by dissolving 6 grams of monobasic sodium phosphate in 100 ml of distilled water, 7 grams of dibasic sodium phosphate (0.4 M) in 100 ml of distilled water and adjusting the pH of the dibasic solution to 7.4 with the monobasic solution. Sodium azide (0.02 grams) was added per 100 ml volume to inhibit bacterial growth. The BSA solution was prepared as follows: 400 mg of Type V BSA (bovine serum albumin) was added for each ml of sodium phosphate buffer (above). A 400 mM glucose solution was prepared by dissolving 7.2 grams of dextrose in 100 ml of sodium phosphate buffer (above). The BSA and glucose solutions were mixed 1:1 and incubated at 37° C. for 12 weeks. The pH of the incubation mixture was monitored weekly and adjusted to pH 7.4 if necessary. After 12 weeks, the AGE-BSA solution was dialyzed against PBS for 48 hours with four buffer changes, each at a 1:500 ratio of solution to dialysis buffer. Protein concentration was determined by the micro-Lowry method. The AGE-BSA stock solution was aliquoted and stored at −20° C. […] Working solutions for crosslinking and breaking studies were prepared as follows. Test compounds were dissolved in PBS and the pH was adjusted to pH 7.4 if necessary. AGE-BSA stock solution was diluted in PBS to measure maximum crosslinking and in the inhibitor solution for testing inhibitory activity of compounds. The concentration of AGE-BSA necessary to achieve the optimum sensitivity was determined by initial titration of each lot of AGE-BSA. • 3. Wash buffer (“PBS-Tween”) was, prepared as follows. PBS was prepared by dissolving the following salts in one liter of distilled water: NaCl, 8 grams; KC1, 0.2 gram, KH2PO4. […] Tween-20 was added to a final concentration of 0.05% (vol/vol). • 4. Substrates for detection of secondary antibody binding were prepared by diluting the HRP substrate buffer 1:10 in distilled water and mixing with ABTS chromogen 1:50 just prior to use. Assay Procedures • 1. Biocoat plates were blocked with 300 μl of “Superbloc”. Plates were blocked for one hour at room temperature and were washed with PBS-Tween three times with the Dynatech platewasher before addition of test reagents. • 2. Each experiment was set up in the following manner. The first three wells of the Biocoat plate were used for the reagent blank.

[2] = system: cross-linking of glycated bovine serum albumin (AGE-BSA) to rat tail tendon collagen; assay: Cross-linking Inhibition Assay; details: for IC50: inhibition of AGE-BSA cross-linking to collagen-coated plate
Procedure: The following method was used to evaluate the ability of the compounds of the present invention to inhibit the cross-linking of glycated bovine serum albumin (AGE-BSA) to the rat tail tendon collagen-coated 96-well plate.
The blocking solution was removed from the wells by, washing the plate twice with PBS-'Tween 20 solution (0.05% Tween 20) using a NUNq-multiprobe or Dynatech ELISA-plate washer. Cross-linking of AGE-BSA (1 to 10 mg per well depending on the batch of AGE-BSA) to rat tail tendon collagen coated plate was performed with and without the testing ‘compound dissolved in PBS buffer at pH 7.4 at the desired concentrations by the, addition of 50 μl each of the AGE-BSA diluted in PBS or in the solution of test compound at 37° C. for 4 hours. Unbrowned BSA in PBS buffer with or without testing compound were added to the separate wells as the blanks. The un-cross-linked AGE-BSA was then removed by washing the wells three times with PBS-Tween buffer. The amount of AGE-BSA cross-linked to the tail tendon collagen-coated plate was then quantitated using a polyclonal antibody raised against AGE-RNase. After a one-hour incubation period, AGE antibody was removed by washing 4 times with PBS-Tween.
The bound AGE antibody was then detected with the addition of horseradish peroxidase-conjugated secondary antibody—goat anti-rabbit immunoglobulin and incubation for 30 minutes. […] The reaction was allowed for an additional 15 minutes and the absorbance was read at 410 nm in a Dynatech plate reader.

tail tendon collagen = assay: CNBr peptide maps of tail tendon collagen from diabetic rats; type: biochemical, rat; details: tail tendon collagen of rats diabetic for 32 weeks, treated before cyanogen bromide digestion
cross-linked AGE-BSA = assay: Breaking of AGE-BSA polymer gel (SDS-PAGE); type: biochemical; details: 10 mm, overnight at 37° C.
Procedure: BSA and glucose solutions (100 ml each) were mixed in the one liter Coming sterile flask, screw-capped tight and incubated at 56° C. without shaking. The bottle was opened once a week to remove aliquots for testing. Reaction was continued for 9 weeks when AGE-BSA polymer formation was observed.
Pieces of AGE-BSA gel was washed with PBS until no more protein was leached in the supernatant, blotted dry with paper towels. About 50 mg of the washed gel was incubated either with PBS or 10 mm 3-(2-phenyl-2-oxoethyl)thiazolium bromide (ALT 766) overnight at 37° C. The supernatants were analyzed by SDS-PAGE and stained with coommassie blue.

[3] = detection with anti-AGE antibody, read-out: IC50 (mM) Anti-AGE
[4] = detection with anti-BSA antibody, read-out: IC50 (mM) Anti-BSA

melting point: 64 to 66 °C
Compound: C#CC[n+]1ccsc1.[Br-]

melting point: 213 to 215 °C
Compound: C#CC[n+]1cscc1C.[Br-]

melting point: 127 to 129 °C
Compound: C#CC[n+]1csc(C)c1.[Br-]

melting point: 198 to 200 °C
Compound: C#CC[n+]1csc(C)c1C.[Br-]

melting point: 132 to 134 °C
Compound: C#CC[n+]1csc(CCO)c1C.[Br-]

melting point: 186 to 187 °C
Compound: Cc1c(CCO)sc[n+]1CC(=O)C(C)(C)C.[Br-]

melting point: 243 to 244 °C (dec.)
Compound: Cc1sc[n+](CC(=O)c2cc(C(C)(C)C)c(O)c(C(C)(C)C)c2)c1C (as salt: bromide) [3-(2-(3′,5′-di-tert-butyl-4′-hydroxypheny].)-2-oxoethyl]-4,5-dimethyl-thiazolium bromide]

melting point: 208 to 209 °C
Compound: C=Cc1sc[n+](CC(=O)c2cc(C(C)(C)C)c(O)c(C(C)(C)C)c2)c1C (as salt: bromide) [3-(2-(3′,5′-tert-butyl-4′-hydroxyphenyl)-2-oxoethyl)-4-methyl-5-vinyl-thiazolium bromide]

melting point: 222 to 223 °C
Compound: COC(=O)c1ccc(NC(=O)C[n+]2csc(CCO)c2C)cc1O (as salt: bromide) [3-(2-(4′-carbmethoxy-3′-hydroxyanilino)-2-oxoethyl]-4-methyl-5-(2′-hydroxyethyl)-thiazolium bromide]

melting point: 210 to 211 °C
Compound: Cc1c[n+](CC(=O)c2cc(C(C)(C)C)c(O)c(C(C)(C)C)c2)cs1 (as salt: bromide) [3-[2-(3′,5′-di-tert-butyl-4′-hydroxyphenyl)-2-oxoethyl)-5-methyl-thiazolium bromide]

Compound: CCCCN(CCCC)C(=O)C[n+]1csc(CCO)c1C.[Br-] [3-(2-Dibutylamino-2-oxoethyl]-4-methyl-5-(2′-hydroxyethyl)-thiazolium bromide]
Breaking Anti-AGE ([1]; at 10 mM): 25% | Breaking Anti-BSA ([1]; at 10 mM): 38% | melting point: 78 to 80 °C | Relative Cross-link Inhibition (at 10 mM) [2]: 0.8% (10 mm)

Compound: Cc1csc[n+]1CC(N)=O.[Br-] [3-(2-amino-2-oxoethyl)-4-methyl-thiazolium bromide]
Breaking Anti-AGE ([1]; at 30 mM): 89% | Breaking Anti-BSA ([1]; at 30 mM): 44% | IC50 [1, 3]: 4.7 mM | IC50 [1, 4]: 38.6 mM | IC50 [2]: 700 µM

Compound: NC(=O)C[n+]1csc2ccccc21.[Br-] [3-(2-amino-2-oxoethyl)-benzothiazolium bromide]
Breaking Anti-AGE ([1]; concentration not given): 77% | Breaking Anti-BSA ([1]; concentration not given): 65% | IC50 [1, 3]: 0.4 mM | IC50 [1, 4]: 0.52 mM | IC50 [2]: 20 µM

Compound: COC(=O)C[n+]1csc(C)c1C.[Br-] [3-(2-methoxy-2-oxoethyl)-4,5-dimethylthiazolium bromide]
Breaking Anti-AGE ([1]; at 30 mM): 63% | Breaking Anti-BSA ([1]; at 30 mM): 47% | melting point: 184 to 185 °C (dec.) | IC50 [2]: 480 µM

Compound: COC(=O)C[n+]1csc(C)c1.[Br-] [3-(2-methoxy-2-oxoethyl)-5-methyl-thiazolium bromide]
Breaking Anti-AGE ([1]; at 30 mM): 72% | Breaking Anti-BSA ([1]; at 30 mM): 27% | IC50 [2]: 3200 µM

Compound: COC(=O)C[n+]1csc2ccccc21.[Br-] [3-(2-methoxy-2-oxoethyl)-benzothiazolium bromide]
Breaking Anti-AGE ([1]; at 30 mM): 66% | Breaking Anti-BSA ([1]; at 30 mM): 37% | IC50 [1, 3]: 1.2 mM | IC50 [1, 4]: 25.9 mM | IC50 [2]: > 10000 µM

Compound: O=C(C[n+]1ccsc1)c1ccccc1.[Br-] [3-(2-phenyl-2-oxoethyl) thiazolium bromide]
electrophoresis of CNBr-digested collagen after treatment (tail tendon collagen): indistinguishable from untreated, non-diabetic (control) collagen | breaking of cross-linked AGE-BSA (SDS-PAGE, FIG. 2) (cross-linked AGE-BSA): breaking of cross-linked AGE-BSA | release of BSA from pre-formed AGE-mediated AGE-BSA/collagen complexes ([1]; AGE-BSA reacted with unmodified, native collagen): concentration-dependent release of BSA | Breaking Anti-AGE ([1]; concentration not given): 73% | Breaking Anti-BSA ([1]; concentration not given): 98% | IC50 [1, 3]: 0.02 mM | IC50 [1, 4]: 0.014 mM | IC50 [2]: 11100 µM

Compound: Cc1sc[n+](CC(=O)c2ccccc2)c1C.[Br-] [3-(2-phenyl-2-oxoethyl)-4,5-dimethylthiazolium bromide]
Breaking Anti-AGE ([1]; at 30 mM): 56%/ND (30) | Relative Cross-link Inhibition (at 10 mM) [2]: 37%

Compound: Cc1c(CCO)sc[n+]1CC(=O)c1ccccc1.[Br-] [3-(2-phenyl-2-oxoethyl)-4-methyl-5-(2-hydroxyethyl)-thiazolium bromide]
Breaking Anti-AGE ([1]; at 30 mM): 67% | Breaking Anti-BSA ([1]; at 30 mM): 13% | IC50 [1, 3]: 14.3 mM | IC50 [2]: > 10000 µM

Compound: C=Cc1sc[n+](CC(=O)c2ccccc2)c1C.[Br-] [3-(2-phenyl-2-oxoethyl)-4-methyl-5-vinyl-thiazolium bromide]
Breaking Anti-AGE ([1]; at 1 mM): 62% | Breaking Anti-BSA ([1]; at 1 mM): 82% | IC50 [1, 4]: 0.1 mM | melting point: 176 to 177 °C

Compound: Cc1csc[n+]1CC(=O)c1ccccc1.[Br-] [3-(2-phenyl-2-oxoethyl)-4-methylthiazolium bromide]
Breaking Anti-AGE ([1]; at 30 mM): 68% | Breaking Anti-BSA ([1]; at 30 mM): 66% | IC50 [1, 3]: 0.23 mM | IC50 [1, 4]: 0.3 mM | IC50 [2]: 5600 µM

Compound: CC(C)(C)C(=O)C[n+]1ccsc1.[Br-] [3-(2-tert-butyl-2-oxoethyl)-thiazolium bromide]
Breaking Anti-AGE ([1]; at 10 mM): 28% | Breaking Anti-BSA ([1]; at 10 mM): 37% | melting point: 211 to 212 °C

Compound: Cc1c(CCO)sc[n+]1Cc1ccccc1[N+](=O)[O-].[Br-] [3-(2′-nitrobenzyl)-4-methyl-5-(2′-hydroxyethyl)-thiazolium bromide]
Breaking Anti-AGE ([1]; at 10 mM): 11% | Breaking Anti-BSA ([1]; at 10 mM): 13% | melting point: 215 to 216 °C

Breaking Anti-AGE ([1]; at 10 mM): 4% and 14% | Breaking Anti-BSA ([1]; at 10 mM): 19% and 25% | melting point: 135 to 136 °C
Compound: COc1cccc(C[n+]2csc(CCO)c2C)c1.[Cl-] [3-(3′-methoxybenzyl)-4-methyl-5-(2′-hydroxyethyl)-thiazolium chloride]

Breaking Anti-AGE ([1]; at 1 mM): 65% | Breaking Anti-AGE ([1]; at 10 mM): 48% | Breaking Anti-BSA ([1]; at 1 mM): 69% | Breaking Anti-BSA ([1]; at 10 mM): 49% | IC50 [1, 3]: 3 mM | IC50 [2]: 780 µM
Compound: Cc1c[n+](CC(=O)c2cc(C(C)(C)C)c(O)c(C(C)(C)C)c2)cs1 [3-[2-(3′,5′-di-tert-butyl-4′-hydroxyphenyl)-2-oxoethyl)-5-methyl-thiazolium bromide]

Compound: Cc1c(CCOCc2c(Cl)cccc2Cl)sc[n+]1N.Cc1cc(C)c(S(=O)(=O)[O-])c(C)c1 [3-amino-4-methyl-5-(2(2′,6′-dichlorobenzyloxy)ethyl]-thiazolium mesitylenesulfonate]
Breaking Anti-AGE ([1]; at 10 mM): 31% | Breaking Anti-BSA ([1]; at 10 mM): 54% | Relative Cross-link Inhibition ([2]; 3 mM): 26.5% (3 mm)
